{"source": "patent US20240216339A1", "about": "“METHODS OF TREATING NEUROPSYCHIATRIC DISORDERS” (GILGAMESH PHARMACEUTICALS, INC., priority 2021, published 2024)", "key": {"C57BL/6 mice": {"tested_on": "C57BL/6 mice", "experiment": "Head twitch response (HTR) to 4-HO-MET after vehicle or daridorexant pre-treatment", "assay_type": "in vivo, mouse", "settings": "4-HO-MET 0.32-3.2 mg/kg s.c.; vehicle (0.5% methylcellulose) pretreatment; 20 min period; FIG. 5", "procedure": "Administration of 5-HT2A receptor agonists in mice induces a robust head twitch response (HTR). The number of head twitches observed in mice is recognized as an indicator of the degree of psychedelic effects (Halberstadt et al 2020). To determine whether the HTR induced by 5-HT2A receptor agonists is modulated by dual orexin receptor antagonists, a study was performed comparing the HTR induced by a 5-HT2A receptor agonist, 4-hydroxy-N-methyl-N-ethyltryptamine (4-HO-MET), after pre-treatment with either vehicle or the dual orexin receptor antagonist daridorexant.\nMale C57BL/6 mice (˜6-8 Week; Hylasco, Hyderabad, India) were pair-housed under standard conditions on a 12-h light cycle with free access to food and water. On the test day, mice were randomly assigned to one of 6 treatment groups (see Table 1 below). Mice were dosed orally with 0.5% methylcellulose or daridorexant at t=−30 min followed by a subcutaneous (s.c.) injection of 4-HO-MET (0.32, 1, or 3.2 mg/kg) at t=0 min. Mice were then immediately placed in a chamber and the number of head twitches in a 20 min period post 4-HO-MET injection (t=0-20 min) were counted manually by a blinded, trained observer."}, "individuals": {"tested_on": "individuals", "settings": "anecdotal; individuals who fell asleep while taking LSD; more than 12 hours after the dose; cited from earlier work"}, "[1]": {"tested_on": "sleep-wake behaviour in Sprague Dawley rats", "experiment": "EEG/EMG sleep-wake study of daridorexant, psilocybin and their combination", "assay_type": "in vivo, rat", "procedure": "The aim of this study was to investigate the effects of daridorexant, psilocybin, and the combination of the two compounds, on sleep-wake behaviour in Sprague Dawley rats, across the circadian cycle. Daridorexant is a dual orexin receptor antagonist used for treating insomnia. Psilocybin is a 5-HT2A receptor agonist with psychedelic properties and relatively short half-life. The study was conducted at Transpharmation, UK, under Study IDs EEG079a and EEG079c.\n8 male Sprague Dawley rats (Charles River, UK) were used in the study. Animals were housed in groups of 2-3 with standard conditions. Average weight at start of dosing was 433-517 g, corresponding to ˜ 14 weeks old.\nThe animals were anaesthetised with isoflurane (2-5% in oxygen at 1 L/min) throughout the procedure. The scalp, neck, and right flank were cleared of hair using clippers and cleaned using diluted Hibitane (50% (v/v) in water). A non-steroidal anti-inflammatory agent was administered (Carprofen 5 mg/kg, subcutaneously (s.c.)) and the animals placed on a homeothermic blanket (37° C.) with the head fixed in a stereotaxic frame. Incisions were made in the scalp and neck, as well as in the right flank. Blunt dissection of the abdominal muscle was then made to gain access to the peritoneal cavity. A radio transmitter (HD-S02, Data Sciences International) was implanted in the peritoneal cavity and secured to the muscle wall with non-absorbable sutures. The wires of the transmitter were passed using a 16 G needle through the muscle wall and then sub-dermally to the scalp to act as EEG/EMG electrodes. The scalp was cleared of connective tissue and two craniotomies were made with a trepanning drill (fronto-parietal coordinates; Bregma+2 mm anterior, midline+1.0 mm lateral, and Lambda 0 mm, +1.5 mm lateral). The positive EEG electrode was attached to the anterior craniotomy and the negative EEG electrode to the posterior craniotomy. Both electrodes were secured in place using a suitable adhesive agent (cyanoacrylate gel, RS components). A second set of electrodes were sutured into the nuchal muscle to act as EMG electrodes. All incisions were closed using absorbable suture.\nAll animals were allowed to recover in a warm environment and given 5 mL of saline s.c. Animals were kept singly in the cage until the next day, then pair housed for the duration of post-surgical recovery (minimum 7 days). During the recovery period the rats received 5 days of standard post-operative care with no further experimental procedures until the pre-operative body weight was regained. The animals were maintained on a 12/12 h light-dark cycle (08:00 am lights on) after the surgery.\nOn study days, at ˜30 min after lights-on, animals were placed in recording boxes similar to their home cages and data acquisition was begun for confirmation of signal quality. After 30 min, each animal was briefly removed from its box to be dosed (see schedule below). Animals were immediately put back into the recording boxes, the experimenter left the room, and recordings continued uninterrupted for ˜23 h. At the end of the recording session, the transmitters were turned off and the animals were returned to their home cages. Animals received treatment conditions in a pseudo randomised cross-over fashion with a minimum period of 7 days between doses.\nDaridorexant was administered p.o. at a volume of 5 mL/kg with 0.5% methylcellulose vehicle (Vehicle 1), at doses of 30 mg/kg or 100 mg/kg. Psilocybin was administered s.c. at a volume of 3 mL/kg with saline vehicle (Vehicle 2), at doses of 0.5 mg/kg, 1 mg/kg, or 3 mg/kg.\nEEG, EMG, and locomotor activity data were acquired for ˜23 h post dosing using intraperitoneal HD-S02 transmitters (DSI, New Brighton, MN) and Spike2 software (CED, Cambridge UK). EEG/EMG signals were amplified, analogue filtered (0.5-100 Hz), digitized (256 Hz), and then digitally filtered (EEG: 0.5-100 Hz and EMG: 70-100 Hz). […]"}, "[2]": {"tested_on": "patients with major depressive disorder (MDD)", "settings": "discontinued Phase II study; cited from earlier work"}, "[3]": {"tested_on": "major depressive disorder (MDD)", "settings": "cited from earlier work"}, "[4]": {"settings": "first 4 h after dosing, daridorexant at both 30 and 100 mg/kg p.o., FIG. 1B"}}, "data": [{"smiles": "CCN(C)CCc1c[nH]c2cccc(O)c12", "note": "[4-HO-MET, 4-hydroxy-N-methyl-N-ethyltryptamine]", "values": [{"measurement": "number of head twitches (HTR)", "setting": "C57BL/6 mice", "value": "produced HTR in a dose-dependent manner"}]}, {"smiles": "CCN(CC)C(=O)[C@@H]1C=C2c3cccc4[nH]cc(c34)C[C@H]2N(C)C1", "note": "[LSD, lysergic acid diethylamide]", "values": [{"measurement": "next day creativity and vigor", "setting": "individuals", "value": "next day enhanced creativity and vigor"}]}, {"smiles": "COc1ccc(-n2nccn2)c(C(=O)N2CCC[C@@]2(C)c2nc3c(C)c(Cl)ccc3[nH]2)c1", "note": "[daridorexant]", "values": [{"measurement": "percentage of time spent in Wake across 22 h", "setting": "[1]; first 2 h after dosing, daridorexant alone 30, 100 mg/kg, FIG. 3A", "value": "wakefulness reduction"}, {"measurement": "percentage of time spent in NREM across 22 h", "setting": "[1]; first 2 h after dosing, daridorexant alone 30, 100 mg/kg, FIG. 3B", "value": "promotion of NREM and REM sleep"}, {"measurement": "percentage of time spent in REM across 22 h", "setting": "[1]; first 2 h after dosing, daridorexant alone 30, 100 mg/kg, FIG. 3C", "value": "promotion of NREM and REM sleep"}, {"measurement": "percentage of time spent in Wake", "setting": "[1]; [4]", "value": "acutely reduced wakefulness for the first 2 h after dosing"}, {"measurement": "percentage of time spent in sleep (NREM, REM)", "setting": "[1]; [4]", "value": "promoting sleep, especially NREM sleep"}, {"measurement": "REM sleep onset latency", "setting": "[1]; psilocybin 1, 3 mg/kg, daridorexant 30, 100 mg/kg, combinations D100+P1, D30+P1, FIG. 2A", "value": "dose-dependent decrease"}, {"measurement": "NREM sleep onset latency", "setting": "[1]; psilocybin 1, 3 mg/kg, daridorexant 30, 100 mg/kg, combinations D100+P1, D30+P1, FIG. 2B", "value": "reduction"}]}, {"smiles": "Cc1ccc(-c2ncccn2)c(C(=O)N2C[C@H](COc3ccc(F)cn3)CC[C@H]2C)c1", "note": "[filorexant]", "values": [{"measurement": "separation from placebo in MDD", "setting": "[2]", "value": "did not separate from placebo"}]}, {"smiles": "Cc1cc(C)nc(N2CC3CN(C(=O)c4c(F)cccc4-n4nccn4)CC3C2)n1", "note": "(stereo not drawn) [seltorexant, Seltorexant]", "values": [{"measurement": "(left posterior) EEG power", "setting": "[3]; compared to placebo", "value": "overall increase"}, {"measurement": "delta power during stage 2 sleep", "setting": "[3]; compared to placebo", "value": "relative increase"}, {"measurement": "theta, alpha, and beta power during stage 2 sleep", "setting": "[3]; compared to placebo", "value": "decrease"}, {"measurement": "antidepressant efficacy with continued treatment", "setting": "[3]; continued treatment up to 28 days", "value": "maintained"}, {"measurement": "core depressive symptoms compared to placebo", "setting": "[3]; ten days of treatment, seen at day 11", "value": "significant improvement"}]}]}
